# Laboratory results published in US10138212B2, “Aminoquinazoline compounds as A2A antagonist” (Merck Sharp & Dohme Corp., priority 2015, dated 2018).
# Legend:
# [1] = target: human A2a receptor (Homo sapiens (Human), UniProt P29274); assay: A2a competition binding assay using Scintillation Proximity technology
# Summary of the method: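 Membranes (0.25 or 1 μg) from HEK293 expressing the receptor were pretreated with adenosine deaminase and bound to WGA-coated yttrium silicate SPA beads. They were incubated 1 h at room temperature with compound at 3000–0.15 nM and 0.5 nM tritiated pyrazolotriazolopyrimidine ligand in Ca/Mg-free DPBS with 10 mM MgCl2. Ki was derived from […] by Cheng-Prusoff.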
# [2] = target: human A1 receptor (Homo sapiens (Human), UniProt P30542); assay: A1 competition binding assay using Scintillation Proximity technology; selectivity = A1 binding Ki / A2a binding Ki; conditions: A1 binding Ki divided by A2a binding Ki
# Sequence of human A1 receptor (P30542 whole entry): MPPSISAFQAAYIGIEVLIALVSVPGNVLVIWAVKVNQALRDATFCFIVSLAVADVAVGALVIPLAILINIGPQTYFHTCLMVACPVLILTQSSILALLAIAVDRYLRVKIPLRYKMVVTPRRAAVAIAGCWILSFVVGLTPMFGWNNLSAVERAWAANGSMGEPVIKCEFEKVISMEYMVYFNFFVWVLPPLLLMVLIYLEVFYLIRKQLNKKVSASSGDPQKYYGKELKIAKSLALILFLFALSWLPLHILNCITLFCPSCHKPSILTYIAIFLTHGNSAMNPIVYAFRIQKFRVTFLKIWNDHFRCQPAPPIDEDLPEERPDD
# Summary of the method: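 SPA competition using 5 ug membranes from CHO-K1 cells expressing human A1, pretreated with adenosine deaminase. Radioligand was 0.7 nM [3H]DPCPX (final), with compound at 3000–0.15 nM in DPBS + 10 mM MgCl2. Incubation was 1 h at room temperature. Non-specific binding was defined with 1 uM DPCPX, and Ki was derived as for A2a.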
# [3] = 0.25 μg of membranes from HEK293 cells expressing the human A2a receptor
# [4] = * assay run with 1 μg of membranes versus 0.25 μg, HEK293 cells expressing the human A2a receptor
# Sequence of human A2a receptor (P29274 whole entry): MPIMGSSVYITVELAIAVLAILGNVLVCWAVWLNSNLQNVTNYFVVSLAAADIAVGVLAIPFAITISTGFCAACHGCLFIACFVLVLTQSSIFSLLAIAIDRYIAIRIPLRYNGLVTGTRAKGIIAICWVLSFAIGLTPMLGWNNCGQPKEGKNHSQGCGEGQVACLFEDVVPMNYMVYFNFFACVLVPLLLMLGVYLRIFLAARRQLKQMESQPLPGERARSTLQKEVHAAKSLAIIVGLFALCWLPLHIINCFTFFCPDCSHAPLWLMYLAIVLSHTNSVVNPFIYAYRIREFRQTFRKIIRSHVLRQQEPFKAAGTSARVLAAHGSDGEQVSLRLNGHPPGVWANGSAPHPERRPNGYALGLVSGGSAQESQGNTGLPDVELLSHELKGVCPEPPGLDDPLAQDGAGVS
"Ki [1, 3] [nM]",A2a selectivity (A2a A1 binding selectivity) [2],"Ki [1, 4] [nM]",SMILES
0.3,114,–,"COc1cccc2c(C(=O)NCc3cccc4ccncc34)nc(N)nc12 [Example 16, 2-amino-N-(8-isoquinolylmethyl)-8-methoxy-quinazoline-4-carboxamide]"
–,84,2.3,"COc1cccc2c(C(=O)NCc3ccccc3-c3ccccn3)nc(N)nc12 [Example 43, 2-amino-8-methoxy-N-[[2-(2-pyridyl)phenyl]methyl]quinazoline-4-carboxamide]"
6.7,8,–,"C[C@@H](NC(=O)c1nc(N)nc2c(F)cccc12)c1cccc2cccnc12 [Example 88, 2-amino-8-fluoro-N-[(1R)-1-(8-quinolyl)ethyl]quinazoline-4-carboxamide]"
0.4,184,–,"COc1cccc2c(C(=O)NCc3cccc(C)c3)nc(N)nc12 [Example 17, 2-amino-8-methoxy-N-(m-tolylmethyl)quinazoline-4-carboxamide]"
2.9,118,–,"COc1cccc2c(C(=O)NCc3ncc(F)cc3F)nc(N)nc12 [Example 29, 2-amino-N-[(3,5-difluoro-2-pyridyl)methyl]-8-methoxy-quinazoline-4-carboxamide]"
2.6,114,–,"COc1cccc2c(C(=O)N[C@@H](CO)c3ccccc3)nc(N)nc12 [Example 36, 2-amino-N-[(1R)-2-hydroxy-1-phenyl-ethyl]-8-methoxy-quinazoline-4-carboxamide]"
43,94,–,"COc1cccc2c(C(=O)NCc3ncccn3)nc(N)nc12 [Example 38, 2-amino-8-methoxy-N-(pyrimidin-2-ylmethyl)quinazoline-4-carboxamide]"
3,70,–,"Nc1nc(C(=O)NCc2cccc3cccnc23)c2cccc(Cl)c2n1 [Example 91, 2-amino-8-chloro-N-(8-quinolylmethyl)quinazoline-4-carboxamide]"
0.8,82,–,"COc1cccc(CNC(=O)c2nc(N)nc3c(OC)cccc23)n1 [Example 21, 2-amino-8-methoxy-N-[(6-methoxy-2-pyridyl)methyl]quinazoline-4-carboxamide]"
8.3,32,–,"COc1cccc2c(C(=O)N[C@@H](CO)c3ccc4ccccc4n3)nc(N)nc12 [Example 37, 2-amino-N-[(1R)-2-hydroxy-1-(2-quinolyl)ethyl]-8-methoxy-quinazoline-4-carboxamide]"
2.2,484,–,"Nc1nc(C(=O)NCc2cccc(COc3ccccn3)n2)c2cccc(F)c2n1 [Example 46, 2-amino-8-fluoro-N-[[6-(2-pyridyloxymethyl)-2-pyridyl]methyl]quinazoline-4-carboxamide]"
0.6,314,–,"COc1cccc2c(C(=O)NCc3cccc(C4(O)CCC4)n3)nc(N)nc12 [Example 4, 2-amino-N-[[6-(1-hydroxycyclobutyl)-2-pyridyl]methyl]-8-methoxy-quinazoline-4-carboxamide]"
2.6,53,–,"COc1cccc2c(C(=O)NCc3ncccc3C(F)(F)F)nc(N)nc12 [Example 19, 2-amino-8-methoxy-N-[[3-(trifluoromethyl)-2-pyridyl]methyl]quinazoline-4-carboxamide]"
2.1,163,–,"N#Cc1cccc2c(C(=O)NCc3cccc4cccnc34)nc(N)nc12 [Example 100, 2-amino-8-cyano-N-(8-quinolylmethyl)quinazoline-4-carboxamide]"
–,21,6.2,"Nc1nc(C(=O)NCc2cccc3cncn23)c2cccc(F)c2n1 [Example 80, 2-amino-8-fluoro-N-(imidazo[1,5-a]pyridin-5-ylmethyl)quinazoline-4-carboxamide]"
7.8,52,–,"COc1ccc(CNC(=O)c2nc(N)nc3c(OC)cccc23)nc1 [Example 22, 2-amino-8-methoxy-N-[(5-methoxy-2-pyridyl)methyl]quinazoline-4-carboxamide]"
1.7,133,–,"Cc1ccc(F)c(CNC(=O)c2nc(N)nc3c(-c4ncco4)cccc23)n1 [Example 98, 2-amino-N-[(3-fluoro-6-methyl-2-pyridyl)methyl]-8-oxazol-2-yl-quinazoline-4-carboxamide]"
1.5,138,–,"COc1cccc2c(C(=O)NCc3ccc4ccccc4n3)nc(N)nc12 [Example 30, 2-amino-8-methoxy-N-(2-quinolylmethyl)quinazoline-4-carboxamide]"
1.5,148,–,"COc1cccc2c(C(=O)NCc3cccc(F)n3)nc(N)nc12 [Example 27, 2-amino-N-[(6-fluoro-2-pyridyl)methyl]-8-methoxy-quinazoline-4-carboxamide]"
–,56,9.2,"COc1cccc2c(C(=O)NCc3ccccc3-c3cccnc3)nc(N)nc12 [Example 41, 2-amino-8-methoxy-N-[[2-(3-pyridyl)phenyl]methyl]quinazoline-4-carboxamide]"
5.2,14,–,"CC1(O)CCN(c2cccc(CNC(=O)c3nc(N)nc4c(F)cccc34)n2)CC1 [Example 79, 2-amino-8-fluoro-N-[[6-(4-hydroxy-4-methyl-1-piperidyl)-2-pyridyl]methyl]quinazoline-4-carboxamide]"
0.2,32,–,"COc1cccc2c(C(=O)NCc3cccc4cccnc34)nc(N)nc12 [Example 12, 2-amino-8-methoxy-N-(8-quinolylmethyl)quinazoline-4-carboxamide]"

SMILES,"Ki [1, 3] [nM]",A2a selectivity (A2a A1 binding selectivity) [2],"Ki [1, 4] [nM]"
"COc1cccc2c(C(=O)NCc3cccc(COCC(C)C)n3)nc(N)nc12 [Example 51, 2-amino-N-[[6-(isobutoxymethyl)-2-pyridyl]methyl]-8-methoxy-quinazoline-4-carboxamide]",1.9,90,–
